Numbers after ± are expanded uncertainties.
Assay: activity coefficient (dimensionless); of the first substance listed, at infinite dilution; xn = mol fraction of the nth substance listed
Conditions: Liquid, Chromatography, x1 = 0

| SMILES | activity coefficient (303.15 K) | activity coefficient (308.15 K) | activity coefficient (313.15 K) | activity coefficient (318.15 K) |
| --- | --- | --- | --- | --- |
| C#CCCCCC [1-heptyne] + CC(CC(C)(C)C)CP(=O)([O-])CC(C)CC(C)(C)C.CCCCCCCCCCCCCC[P+](CCCCCC)(CCCCCC)CCCCCC | 0.33 ± 0.04 | 0.35 ± 0.04 | 0.39 ± 0.04 | 0.41 ± 0.04 |
| C#CCCCC [1-hexyne] + CC(CC(C)(C)C)CP(=O)([O-])CC(C)CC(C)(C)C.CCCCCCCCCCCCCC[P+](CCCCCC)(CCCCCC)CCCCCC | 0.38 ± 0.04 | 0.4 ± 0.04 | 0.43 ± 0.04 | 0.46 ± 0.04 |
| C#CCCCCCC [1-octyne] + CC(CC(C)(C)C)CP(=O)([O-])CC(C)CC(C)(C)C.CCCCCCCCCCCCCC[P+](CCCCCC)(CCCCCC)CCCCCC | 0.28 ± 0.03 | 0.33 ± 0.04 | 0.36 ± 0.04 | 0.39 ± 0.04 |
| C=CCCC [1-pentene] + CC(CC(C)(C)C)CP(=O)([O-])CC(C)CC(C)(C)C.CCCCCCCCCCCCCC[P+](CCCCCC)(CCCCCC)CCCCCC | 0.59 ± 0.05 | 0.61 ± 0.05 | 0.62 ± 0.05 | 0.64 ± 0.06 |
| c1ccccc1 [benzene] + CC(CC(C)(C)C)CP(=O)([O-])CC(C)CC(C)(C)C.CCCCCCCCCCCCCC[P+](CCCCCC)(CCCCCC)CCCCCC | 0.44 ± 0.04 | 0.47 ± 0.04 | 0.48 ± 0.05 | 0.49 ± 0.05 |
| C1CCCCCC1 [cycloheptane] + CC(CC(C)(C)C)CP(=O)([O-])CC(C)CC(C)(C)C.CCCCCCCCCCCCCC[P+](CCCCCC)(CCCCCC)CCCCCC | 0.56 ± 0.05 | 0.56 ± 0.05 | 0.58 ± 0.05 | 0.6 ± 0.05 |
| C1CCCCC1 [cyclohexane] + CC(CC(C)(C)C)CP(=O)([O-])CC(C)CC(C)(C)C.CCCCCCCCCCCCCC[P+](CCCCCC)(CCCCCC)CCCCCC | 0.51 ± 0.05 | 0.52 ± 0.05 | 0.54 ± 0.05 | 0.56 ± 0.05 |
| C1CCCC1 [cyclopentane] + CC(CC(C)(C)C)CP(=O)([O-])CC(C)CC(C)(C)C.CCCCCCCCCCCCCC[P+](CCCCCC)(CCCCCC)CCCCCC | 0.45 ± 0.04 | 0.46 ± 0.04 | 0.48 ± 0.05 | 0.5 ± 0.05 |

Other lines, results leading:

| activity coefficient (303.15 K) | activity coefficient (308.15 K) | activity coefficient (313.15 K) | activity coefficient (318.15 K) | SMILES |
| --- | --- | --- | --- | --- |
| 0.77 ± 0.07 | 0.79 ± 0.07 | 0.81 ± 0.07 | 0.83 ± 0.07 | CCCCCCC [heptane] + CC(CC(C)(C)C)CP(=O)([O-])CC(C)CC(C)(C)C.CCCCCCCCCCCCCC[P+](CCCCCC)(CCCCCC)CCCCCC |
| 0.63 ± 0.06 | 0.65 ± 0.06 | 0.68 ± 0.06 | 0.7 ± 0.06 | C=CCCCC [hex-1-ene] + CC(CC(C)(C)C)CP(=O)([O-])CC(C)CC(C)(C)C.CCCCCCCCCCCCCC[P+](CCCCCC)(CCCCCC)CCCCCC |
| 0.71 ± 0.06 | 0.73 ± 0.06 | 0.73 ± 0.06 | 0.75 ± 0.06 | CCCCCC [hexane] + CC(CC(C)(C)C)CP(=O)([O-])CC(C)CC(C)(C)C.CCCCCCCCCCCCCC[P+](CCCCCC)(CCCCCC)CCCCCC |
| 0.75 ± 0.06 | 0.76 ± 0.06 | 0.78 ± 0.07 | 0.81 ± 0.07 | C=CCCCCCC [oct-1-ene] + CC(CC(C)(C)C)CP(=O)([O-])CC(C)CC(C)(C)C.CCCCCCCCCCCCCC[P+](CCCCCC)(CCCCCC)CCCCCC |
| 0.79 ± 0.07 | 0.82 ± 0.07 | 0.85 ± 0.07 | 0.86 ± 0.07 | CCCCCCCC [octane] + CC(CC(C)(C)C)CP(=O)([O-])CC(C)CC(C)(C)C.CCCCCCCCCCCCCC[P+](CCCCCC)(CCCCCC)CCCCCC |
| 0.66 ± 0.06 | 0.69 ± 0.06 | 0.7 ± 0.06 | 0.71 ± 0.06 | CCCCC [pentane] + CC(CC(C)(C)C)CP(=O)([O-])CC(C)CC(C)(C)C.CCCCCCCCCCCCCC[P+](CCCCCC)(CCCCCC)CCCCCC |

Reference: the NIST ThermoML archive (doi:10.1016/j.jct.2008.04.002)
